Results published in PubChem BioAssay AID179 (DTP/NCI, 2004).
pEC50, pIC50: −log10 of the molar value. “And” between values parts separate entries of the source, which are not always exact repeats. Equal entries are not always repeated. The source made the active and inactive calls.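 How the source made its calls: active means compounds giving half or more protection of infected cells from virus-caused growth loss, again on retest; inactive means the rest.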 *1 amine or outer side, *2 acyl side, *3 side chain or, on linkers, in order; H or OH if unused. Where a SMILES comes first, the peptide text is derived from it. Bridges are numbered along the chain shown (N, C = ends). [ ]: non-standard residue; d: D form. The star is where a group is joined. ξ: configuration not given here. γ4hArg(2R,3R-(OH)2) = N=C(N)NCCC[C@H](N[*:1])[C@@H](O)[C@@H](O)C(=O)[*:2]; Gln(3S,4R-Me2) = C[C@H]([C@H](N)C(=O)O)[C@@H](C)C(N)=O; X5 = CC(C)C[C@H](C)[C@@H](O)[C@@H](C)C(=O)*; X6 = COC(c1ccc(O)cc1)C(N[*:1])C(=O)[*:2]; NMeQ = CN[C@@H](CCC(N)=O)C(=O)O; Thr(3ξ) = CC(O)[C@H](N)C(=O)O; NMeA = CN[C@@H](C)C(=O)O

Tested on: CEM cells HIV-1 protection, formazan growth assay
Assay: NCI AIDS Antiviral Assay
Conditions: for pIC50: measured here: growth of uninfected CEM cells
Method in brief: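 Category rules: moderately active means at least 50% protection on retest, and confirmed active means 100% protection reproducibly. The underlying data came from a formazan growth assay in HIV-1-infected CEM cells.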

SMILES | pEC50 | pIC50 | outcome
COC(c1ccc(O)cc1)C1NC(=O)[C@H](CCC(N)=O)N(C)C(=O)[C@H](CC(C)C)NC(=O)[C@@H](CCCN=C(N)N)NC(=O)[C@H](C(C)O)NC(=O)[C@@H](NC(=O)[C@@H](NC(=O)[C@H](O)[C@H](O)[C@H](CCCN=C(N)N)NC(=O)[C@H](C)NC(=O)[C@H](C)[C@H](O)[C@@H](C)CC(C)C)[C@@H](C)[C@@H](C)C(N)=O)[C@@H](C)OC(=O)[C@H](C)N(C)C1=O (stereo partly drawn) (X5-A[γ4hArg(2R,3R-(OH)2)][Gln(3S,4R-Me2)]T[Thr(3ξ)][dR]L[NMeQ][X6][NMeA]; ester 4-C) | 7.03 | 6.10 | 
O=C1c2ccccc2C(=O)N1Cc1ccccc1 | < 3.70 | < 3.70 | 
C/C=C/[C@@H]1[C@H]2C(=O)[C@]3(Cl)[C@@H](/C=C/C)[C@@H]3C(=O)[C@@]12Cl |  |  | inactive
CCCCCC=C(c1cc(Cl)c(OC)c(-c2nc(C)no2)c1)c1cc(Cl)c(OC)c(-c2nc(C)no2)c1 | < 3.70 | 4.99 | 
C=CC1ON(Cc2ccccc2)CCc2cc(OC)c(OC)cc21 (configuration not stated) | < 3.70 | 4.39 | 
CCc1n[nH]c(=O)[nH]1 | < 3.70 | < 3.70 | 
O=S(=O)(Cc1ccccc1)c1nnc(S(=O)(=O)c2ccc(Cl)cc2)s1 | < 3.70 | 5.26 | 
CCOC(=O)/C(C#N)=C(O)/C(=C/c1ccccc1Cl)NC(=O)c1ccccc1 | < 3.20 | < 3.20 | 
O=c1[nH]c(O)c(/C=N/C(=S)Nc2ccc(S(=O)(=O)Nc3nccs3)cc2)c(=O)[nH]1 | < 3.70 | < 3.70 | 
CC(=O)OC12CC(C(F)(F)F)(C(F)(F)F)OC1(OC(C)=O)CC(C(F)(F)F)(C(F)(F)F)O2 (configuration not stated) |  |  | inactive
CC1(O)/C(=N/O)CC2CC1C2(C)C (configuration not stated) | < 2.87 | < 2.87 | 
C1=NCCNCCNCCN=Cc2ccccc2OCc2cccc(n2)COc2ccccc21 | < 4.30 | 5.11 | 
O=C1CCCC2=C1CC1=C(CCCC1=O)N2c1cccc2ccccc12 | 4.31 | 3.76 | 
O=C(O)c1ccc(CSc2ccc([N+](=O)[O-])cc2)c([N+](=O)[O-])c1 | < 3.69 | < 4.00 | 
CCC1c2cc3n(c(=O)c2COC1O)Cc1c-3nc2ccccc2c1Cl (configuration not stated) | < 5.00 | 5.20 | 
C=C1CN(S(=O)(=O)c2ccc(C)cc2)CCCN(CC(C)(C)C)CCCN(S(=O)(=O)c2ccc(C)cc2)C1 | < 3.70 | 4.98 | 
O=c1ssc(Cl)c1-c1ccccc1 | < 3.70 | 4.99 | 
Cc1cn(C2CC(O)C(CO)(C(F)(F)F)O2)c(=O)[nH]c1=O (configuration not stated) | < 3.70 | < 3.70 | 
COC(=O)[C@]1(C)CCC[C@]2(C)C3CC4OOC3(C=C4C(C)C)CCC21 (some centres not stated) | < 3.60 | 4.94 | 
COc1ccc(/C=C2\C(=O)N(NC(C)=O)c3ccccc32)cc1 | < 3.51 | 4.28 | 
O=C1NN=C(c2ccccc2)SC1c1ccccc1 (configuration not stated) | < 3.70 | < 3.70 | 

SMILES | pEC50 | pIC50 | outcome
CC(=O)NC(C(=O)N1CCCC1C(=O)O)C(C)C (stereo not drawn) (Ac-Val-Pro-OH; configuration not given here) | < 3.70 | < 3.70 | 
Cc1nn(-c2ccccc2)c(-c2ccccc2[N+](=O)[O-])c1CC#N |  |  | inactive
COc1ccccc1C1C=NNC1 (configuration not stated) | < 3.70 | 3.97 | 
CN(C)CCCNC(=O)CNC(=O)c1cc(NC(=O)c2cc(NC(=O)c3cc(NC(=O)CCNC(=O)c4cc(NC(=O)c5cc(NC(=O)c6nccn6C)cn5C)cn4C)cn3C)cn2C)cn1C |  |  | inactive
O=C(NCCc1ccccc1)c1cc2ccc(O)c(O)c2cn1 | < 3.84 | 5.36 and 5.69 | 
COc1ccc(N2C(=O)C3c4[nH]c5ccccc5c4C4CCCCCCC4C3C2=O)cc1 (configuration not stated) | < 5.06 | < 5.06 | 
Cc1cc(S(=O)(=O)Nc2n[nH]c(N)n2)c(SCC(=O)O)cc1Cl | < 3.70 | < 3.70 | 
Cc1cc(C)n(CCNCCn2nc(C)cc2C)n1 |  |  | inactive
N#Cc1nn(C2OC(COC(=O)c3ccccc3)C(OC(=O)c3ccccc3)C2OC(=O)c2ccccc2)c2nc[nH]c(=O)c12 (configuration not stated) | < 3.70 | 4.13 | 
S=C(NCCc1ccccn1)N/N=C(\c1ccccc1)c1ccccn1 | < 6.70 | 7.17 | 
N=c1c2sc3nc4ccccc4n3c2ncn1Cc1ccccc1 | < 4.00 | < 4.00 | 
O=S(=O)(CSc1ccccc1)c1ccccc1 | < 3.31 | 3.54 | 
COC(=O)C1=C(C(=O)OC)SC(=Cc2ccccc2C=C2SC(C(=O)OC)=C(C(=O)OC)S2)S1 |  |  | inactive
N#C/C(=C\c1c(Cl)cccc1Cl)c1ccc([N+](=O)[O-])cc1 | < 3.70 | < 3.70 | 
Cc1cc(C)nc(NS(=O)(=O)c2ccc(N)cc2)n1 | < 3.70 | < 3.70 | 
CC1NC(=O)COC1c1ccccc1 (configuration not stated) | < 3.70 | < 3.70 | 
C=CCCCCCCCCC(=O)ON(Cc1ccc(O)c(OC)c1)C(=O)C(F)(F)F | < 3.70 | < 3.70 | 
N#C/C=C/c1cccc(Br)c1 | < 4.32 | < 4.32 | 
CCOC(=O)/C(O)=C(/C(=O)OC)c1ccc(Cl)cc1 | < 3.37 | < 3.37 | 
COC12CCCN1c1ccn(Cc3ccccc3)c(=O)c1C2=O (configuration not stated) |  |  | inactive
O=[N+]([O-])c1ccc(N/N=C/C(c2ccccc2)c2ccsc2)c([N+](=O)[O-])c1 (configuration not stated) | < 3.70 | 4.71 | 
